{"source": "paper PMC4865820", "about": "“Branched Peptide, B2088, Disrupts the Supramolecular Organization of Lipopolysaccharides and Sensitizes the Gram-negative Bacteria” (Scientific Reports, 2016)", "key": {"[1]": {"system": "K. pneumoniae ATCC10031", "type": "cell-based", "settings": "ATCC10031, 24 h", "method": "(§1) MIC of each peptide was determined using the microdilution method in a 96 well microtitre plates (SPL Life Sciences Co., Ltd, Korea). Two-fold serial dilutions of each peptide in Mueller-Hinton Broth (MHB) was prepared from a 1 mg/ml stock solution of the peptide in the same broth, to obtain a final concentration in the range of 0.0976–50 μg/ml in each well. Bacterial suspensions (P. aeruginosa ATCC 27853, P. aeruginosa 4877, P. aeruginosa 23155, K. pneumoniae ATCC 10031 and K. pneumoniae 4299) were prepared by suspending the overnight cultured bacteria in saline and adjusting the inoculum to ~10^8 colony forming units (CFU) per ml. A further 150-fold dilution was then prepared in MHB to achieve a final cell density of 10^5–10^6 CFU/ml. In each well, 100 μl of inoculum was mixed with the equal volume of peptides at their 2× concentration. Positive and negative controls contained 200 μl of inoculum (without any peptide) and broth alone (no peptide/inoculum) respectively. Another negative control in which MHB containing 200 μl of peptide alone in its highest concentration tested (50 μg/ml) was also included to ensure that the optical density measured in the test wells was not due to turbidity of the peptides in solution. The 96 well polystyrene plates were then incubated at 37 °C for 24 h and the optical density at 600 nm (OD600) was measured every 30 min continuously using a TECAN microplate reader (TECAN Infinite 200, Austria). All the experiments were performed in two independent duplicates and the MIC was determined as the lowest peptide concentration in which no visible growth was observed."}, "[2]": {"system": "P. aeruginosa 23155", "type": "cell-based", "settings": "23155, 24 h", "method": "as §1"}, "[3]": {"system": "P. aeruginosa ATCC 27853", "type": "cell-based", "settings": "ATCC 27853; for Fractional inhibitory concentration of peptide/PMB, combination with Genta: first number in parenthesis; for Fractional inhibitory concentration of antibiotic, Genta combination: second number in parenthesis", "summary_of_the_method": "(§2)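 Checkerboard combinations of peptide and antibiotic, each 2-fold diluted up to 1× MIC in MHB, were tested against ~10^6 CFU/ml final inoculum. Plates were incubated 24 h at 37 °C, with growth read at OD600. FICI was the sum of the combination-to-alone MIC ratios for each agent, and the lowest FICI from duplicate experiments was reported.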"}, "[4]": {"system": "P. aeruginosa DR4877/07", "type": "cell-based", "settings": "for Fractional inhibitory concentration of peptide/PMB, combination with Chloarm / Fractional inhibitory concentration of peptide/PMB, combination with Erythro / Fractional inhibitory concentration of peptide/PMB, combination with Levo / Fractional inhibitory concentration of peptide/PMB, combination with Tobra: first number in parenthesis; for Fractional inhibitory concentration of antibiotic, Chloarm combination / Fractional inhibitory concentration of antibiotic, Erythro combination / Fractional inhibitory concentration of antibiotic, Levo combination / Fractional inhibitory concentration of antibiotic, Tobra combination: second number in parenthesis", "summary_of_the_method": "as §2"}, "[5]": {"system": "LPS (E. coli serotype 055:B5)", "test": "BODIPY TR cadaverine (BC) displacement assay with LPS", "type": "binding", "settings": "no unit in table; ED50 values in μM; 5 mM HEPES pH 7.4; duplicates; read-out: BC50 (LPS binding)", "summary_of_the_method": "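Peptides (0.02–25.6 μM, two-fold dilutions) mixed 1:1 with BODIPY TR cadaverine:LPS (E. coli 055:B5) mixture in 5 mM HEPES pH 7.4; fluorescence at 580/620 nm. Displacement normalized to polymyxin B (Fmax) and probe:LPS alone (F0); ED50 from curve fit, duplicates.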"}, "[6]": {"system": "K. pneumonia 4299", "test": "microbe, parasite or virus in culture", "type": "cell-based, K. pneumoniae", "settings": "24 h", "method": "as §1"}, "[7]": {"system": "P. aeruginosa ATCC 27853", "test": "microbe, parasite or virus in culture", "type": "cell-based", "settings": "ATCC 27853, 24 h", "method": "as §1"}, "[8]": {"system": "P. aeruginosa ATCC 9027", "test": "Outer membrane permeability assay (NPN)", "type": "cell-based", "settings": "no unit in table; Fig. S5 axis [Peptide], μM; 10 μM NPN, 5 mM HEPES pH 7.4, ex 355/em 405 nm; average of two titrations; read-out: PC50 (peptide concentration for half-maximal NPN intensity, OM permeability)", "method": "The ability of each peptide to permeabilize the OM of Gram-negative organisms was determined using the hydrophobic fluorescent probe 1-N-phenylnaphthylamine (NPN) as previously reported. P. aeruginosa ATCC 9027 cells from an overnight MHB culture were harvested after centrifuging at 3000 rpm for 10 minutes. The pellet was washed twice, suspended in 5 mM HEPES (N- 2-hydroxyethylpiperazine-N’-2 ethanesulfonic acid) buffer (pH 7.4) and adjusted to an OD600 of 0.200. A suspension containing 600 μl of bacteria cells and 1 μl of a concentrated stock solution of NPN was mixed into a 10 mm stirred quartz cuvette so that the final concentration of the probe remained 10 μM. Aliquots containing 1 μl of each peptide in various concentrations (100, 50, 25, 15, 10, 5, 2.5 and 1 μg/ml) were added upon NPN dye stabilization. The fluorescence intensity was monitored using a Quanta Master spectrophotometer with a constant slit width of 0.5 nm, excitation and emission wavelengths set at 355 nm and 405 nm respectively. The peptide concentration required for half-maximal intensity (PC50) was determined by sigmoidal curve fitting using Graphpad Prism software. The experimental data is average of two independent titration experiments."}}, "note": "Positions of bridges follow the written chain, without caps; N, C: chain ends. Non-standard residues stand in square brackets, D forms with d. Residues, ends and D or L forms follow the SMILES beside them. Chains are numbered I, II in the order given. Bip = N[C@@H](Cc1ccc(-c2ccccc2)cc1)C(=O)O; Nle = CCCC[C@H](N)C(=O)O; Nva = CCC[C@H](N)C(=O)O"}
{"smiles": "N=C(N)NCCC[C@H](NC(=O)CNC(=O)[C@@H](N)CCCNC(=N)N)C(=O)N[C@@H](CCCCN)C(=O)N[C@@H](Cc1ccc(-c2ccccc2)cc1)C(=O)N[C@@H](Cc1ccc(-c2ccccc2)cc1)C(=O)N[C@@H](CCCNC(=N)N)C(=O)N[C@@H](CCCNC(=N)N)C(=O)NCCCC[C@H](NC(=O)[C@H](CCCNC(=N)N)NC(=O)[C@H](CCCNC(=N)N)NC(=O)[C@H](Cc1ccc(-c2ccccc2)cc1)NC(=O)[C@H](Cc1ccc(-c2ccccc2)cc1)NC(=O)[C@H](CCCCN)NC(=O)[C@H](CCCNC(=N)N)NC(=O)CNC(=O)[C@@H](N)CCCNC(=N)N)C(=O)N[C@@H](CCCCN)C(=O)O", "note": "[(RGRKFbiFbiRR)2KK] (I: H-RGRK[Bip][Bip]RRKK-OH / II: H-RGRK[Bip][Bip]RR; amide I:9-II:C; N-terminus and C-terminus assumed)", "values": [{"measurement": "Minimum Inhibitory Concentration against K. pneumoniae ATCC10031", "setting": "[1]", "result": 9.8, "unit": "µM"}, {"measurement": "Minimum Inhibitory Concentration against P. aeruginosa 23155", "setting": "[2]", "result": 4.9, "unit": "µM"}, {"measurement": "Fractional inhibitory concentration of peptide/PMB, combination with Genta", "setting": "[3]", "result": 0.5}, {"measurement": "Fractional inhibitory concentration of antibiotic, Genta combination", "setting": "[3]", "result": 0.06}, {"measurement": "Fractional inhibitory concentration of peptide/PMB, combination with Chloarm", "setting": "[4]", "result": 0.5}, {"measurement": "Fractional inhibitory concentration of peptide/PMB, combination with Erythro", "setting": "[4]", "result": "(0.5,0.5)"}, {"measurement": "Fractional inhibitory concentration of peptide/PMB, combination with Levo", "setting": "[4]", "result": "(0.5,0.5)"}, {"measurement": "Fractional inhibitory concentration of peptide/PMB, combination with Tobra", "setting": "[4]", "result": "(0.25,0.25)"}, {"measurement": "Fractional inhibitory concentration of antibiotic, Chloarm combination", "setting": "[4]", "result": 0.06}, {"measurement": "Fractional inhibitory concentration of antibiotic, Erythro combination", "setting": "[4]", "result": "(0.5,0.5)"}, {"measurement": "Fractional inhibitory concentration of antibiotic, Levo combination", "setting": "[4]", "result": "(0.5,0.5)"}, {"measurement": "Fractional inhibitory concentration of antibiotic, Tobra combination", "setting": "[4]", "result": "(0.25,0.25)"}, {"measurement": "EC50", "setting": "[5]", "result": "2.33 ± 0.06", "unit": "µM"}, {"measurement": "Minimum Inhibitory Concentration against K. pneumonia 4299", "setting": "[6]", "result": 19.6, "unit": "µM"}, {"measurement": "Minimum Inhibitory Concentration against P. aeruginosa ATCC 27853", "setting": "[7]", "result": 9.8, "unit": "µM"}, {"measurement": "EC50", "setting": "[8]", "result": "22.2 ± 1.6", "unit": "µM"}]}
{"smiles": "CCCC[C@H](NC(=O)[C@H](CCCCN)NC(=O)[C@H](CCCNC(=N)N)NC(=O)CNC(=O)[C@@H](N)CCCNC(=N)N)C(=O)N[C@@H](CCCC)C(=O)N[C@@H](CCCNC(=N)N)C(=O)N[C@@H](CCCNC(=N)N)C(=O)NCCCC[C@H](NC(=O)[C@H](CCCNC(=N)N)NC(=O)[C@H](CCCNC(=N)N)NC(=O)[C@H](CCCC)NC(=O)[C@H](CCCC)NC(=O)[C@H](CCCCN)NC(=O)[C@H](CCCNC(=N)N)NC(=O)CNC(=O)[C@@H](N)CCCNC(=N)N)C(=O)N[C@@H](CCCCN)C(=O)O", "note": "[(RGRKNleuNleuRR)2KK] (I: H-RGRK[Nle][Nle]RRKK-OH / II: H-RGRK[Nle][Nle]RR; amide I:9-II:C; N-terminus and C-terminus assumed)", "values": [{"measurement": "Minimum Inhibitory Concentration against K. pneumoniae ATCC10031", "setting": "[1]", "result": 2.7, "unit": "µM"}, {"measurement": "Minimum Inhibitory Concentration against P. aeruginosa 23155", "setting": "[2]", "result": 2.7, "unit": "µM"}, {"measurement": "Fractional inhibitory concentration of peptide/PMB, combination with Genta", "setting": "[3]", "result": 0.5}, {"measurement": "Fractional inhibitory concentration of antibiotic, Genta combination", "setting": "[3]", "result": 0.01}, {"measurement": "Fractional inhibitory concentration of peptide/PMB, combination with Chloarm", "setting": "[4]", "result": 0.5}, {"measurement": "Fractional inhibitory concentration of peptide/PMB, combination with Erythro", "setting": "[4]", "result": 0.5}, {"measurement": "Fractional inhibitory concentration of peptide/PMB, combination with Levo", "setting": "[4]", "result": 0.5}, {"measurement": "Fractional inhibitory concentration of peptide/PMB, combination with Tobra", "setting": "[4]", "result": 0.06}, {"measurement": "Fractional inhibitory concentration of antibiotic, Chloarm combination", "setting": "[4]", "result": 0.06}, {"measurement": "Fractional inhibitory concentration of antibiotic, Erythro combination", "setting": "[4]", "result": 0.03}, {"measurement": "Fractional inhibitory concentration of antibiotic, Levo combination", "setting": "[4]", "result": 0.25}, {"measurement": "Fractional inhibitory concentration of antibiotic, Tobra combination", "setting": "[4]", "result": 0.5}, {"measurement": "EC50", "setting": "[5]", "result": "1.62 ± 0.02", "unit": "µM"}, {"measurement": "Minimum Inhibitory Concentration against K. pneumonia 4299", "setting": "[6]", "result": 5.3, "unit": "µM"}, {"measurement": "Minimum Inhibitory Concentration against P. aeruginosa ATCC 27853", "setting": "[7]", "result": 2.7, "unit": "µM"}, {"measurement": "EC50", "setting": "[8]", "result": "16.4 ± 0.1", "unit": "µM"}]}
{"smiles": "CCC[C@H](NC(=O)[C@H](CCCCN)NC(=O)[C@H](CCCNC(=N)N)NC(=O)CNC(=O)[C@@H](N)CCCNC(=N)N)C(=O)N[C@@H](CCC)C(=O)N[C@@H](CCCNC(=N)N)C(=O)N[C@@H](CCCNC(=N)N)C(=O)NCCCC[C@H](NC(=O)[C@H](CCCNC(=N)N)NC(=O)[C@H](CCCNC(=N)N)NC(=O)[C@H](CCC)NC(=O)[C@H](CCC)NC(=O)[C@H](CCCCN)NC(=O)[C@H](CCCNC(=N)N)NC(=O)CNC(=O)[C@@H](N)CCCNC(=N)N)C(=O)N[C@@H](CCCCN)C(=O)O", "note": "[(RGRKNvalNvalRR)2KK] (I: H-RGRK[Nva][Nva]RRKK-OH / II: H-RGRK[Nva][Nva]RR; amide I:9-II:C; N-terminus and C-terminus assumed)", "values": [{"measurement": "Minimum Inhibitory Concentration against K. pneumoniae ATCC10031", "setting": "[1]", "result": 10.9, "unit": "µM"}, {"measurement": "Minimum Inhibitory Concentration against P. aeruginosa 23155", "setting": "[2]", "result": 5.5, "unit": "µM"}, {"measurement": "Fractional inhibitory concentration of antibiotic, Genta combination", "setting": "[3]", "result": 0.13}, {"measurement": "Fractional inhibitory concentration of peptide/PMB, combination with Chloarm", "setting": "[4]", "result": "(0.25,0.25)"}, {"measurement": "Fractional inhibitory concentration of peptide/PMB, combination with Erythro", "setting": "[4]", "result": "(0.5,0.5)"}, {"measurement": "Fractional inhibitory concentration of peptide/PMB, combination with Levo", "setting": "[4]", "result": 0.5}, {"measurement": "Fractional inhibitory concentration of peptide/PMB, combination with Tobra", "setting": "[4]", "result": 0.25}, {"measurement": "Fractional inhibitory concentration of antibiotic, Chloarm combination", "setting": "[4]", "result": "(0.25,0.25)"}, {"measurement": "Fractional inhibitory concentration of antibiotic, Erythro combination", "setting": "[4]", "result": "(0.5,0.5)"}, {"measurement": "Fractional inhibitory concentration of antibiotic, Levo combination", "setting": "[4]", "result": 0.25}, {"measurement": "Fractional inhibitory concentration of antibiotic, Tobra combination", "setting": "[4]", "result": 0.13}, {"measurement": "EC50", "setting": "[5]", "result": "1.45 ± 0.01", "unit": "µM"}, {"measurement": "Minimum Inhibitory Concentration against K. pneumonia 4299", "setting": "[6]", "result": 21.8, "unit": "µM"}, {"measurement": "Minimum Inhibitory Concentration against P. aeruginosa ATCC 27853", "setting": "[7]", "result": 10.9, "unit": "µM"}, {"measurement": "EC50", "setting": "[8]", "result": "14.9 ± 1.2", "unit": "µM"}]}
